How the values were obtained:
[1] = tested on: brain Aβ1-42, brain Aβ1-40, plasma Aβ1-40; assay: Rat intraperitoneal dose response, brain and plasma Aβ 5 hours after dosing; assay type: in vivo; details: 30 mg/kg, 5 hours
Procedure: (§1) IC50 determinations for Aβ1-42 and Aβ1-40 in H4-APPsw cultures in 384-well format were determined using homogeneous time-resolved fluorescence immunoassays as previously described. The principle of these assays is illustrated in Figures 1(c) and 1(d). In other experiments using H4-APPsw cultures, Aβ was quantified by ELISA; for Aβ1-42 the combination of monoclonal antibodies was 26D6 and 565-HRP; for Aβ1-40 it was TSD and 26D6-HRP, and for Aβ1-x it was 4G8 and 26D6-HRP. In some experiments a novel 4-plex Aβ electrochemiluminescence immunoassay was used (Mesoscale Discovery catalog number N45ZA-1). Briefly, the 4-plex was carried out in 96-well format, with 4 separate spots of capture antibodies in each well. The 96-well plates were prepared by the manufacturer, with spots of monoclonal antibodies for Aβ1-42, Aβ1-40, and Aβ1-38, and an additional fourth spot of streptavidin in each well. Plates were initially incubated with blocking buffer (5% BSA in phosphate buffered saline, 200 μL per well) for 2 hours at ambient temperature and then with D2A6H-biotin conjugate (50 ng/mL in 1% BSA, phosphate buffered saline, 25 μL per well) for 1 hour. Plates were then rinsed with phosphate buffered saline before addition of experimental samples for determination of Aβ1-42, Aβ1-40, Aβ1-38, and Aβ1-37 levels, following the manufacturer's instructions as for the Aβ 3-plex kit (catalog number K15148E-1). Rat brain extracts for use in the 4-plex assay were made in 0.2% diethylamine, as previously described. For detection of rat Aβ peptides in the 4-plex (Figure 5), 252Q6-sulfo-tag conjugate was used, and for detection of human Aβ peptides from cell cultures 6E10-sulfo-tag conjugate was used. For Aβ in transiently transfected PS1/PS2 dKO fibroblasts, Aβ1-42 was quantified using an ELISA kit (WACO), and Aβ1-40 was quantified by ELISA as described above for H4-APPsw cultures. For triple transgenic mice (3xTg; [63]), human transgenic Aβ1-42 was assayed in brain homogenates using an ELISA kit (WACO). For the rat and mouse experiments illustrated in Figures 7 and 8, brain samples were prepared by solid phase extraction, and endogenous rat brain Aβ1-42 and Aβ1-40 were quantified by ELISA as previously described for wild type mice. For brain extracts made using solid phase extraction, calibration of Aβ was relative, based on the approximately linear response of the assay in the range tested. For brain extracts made in 0.2% diethylamine, Aβ1-42, Aβ1-40, Aβ1-38, and Aβ1-37 concentrations in brain and cell culture samples were determined by fitting the results of immunoassays against calibration curves derived from a range of dilutions of the corresponding synthetic peptides on each assay plate using a quadratic curve fit (Graphpad Prizm 5.0). Aβ1-x was calibrated in the same way against synthetic Aβ1-40 peptide. Results were expressed in units of pM, corrected for sample dilution.
Figure 7 BMS-869780 dose response and evaluation of residual Aβ levels in rat brain. (a) Groups of rats received intraperitoneal (IP) injections of vehicle or BMS-869780 at doses of 100, 30, 10, 3, 1, and 0.3 mg/kg. Additional rats were dosed with GSI BMS-698861 at 30 mg/kg as a positive control for Aβ-lowering. Group sizes were seven rats for each dose of BMS-869780 and 14 rats for vehicle and GSI dose groups. Brain and plasma were harvested 5 hours after dosing. Brain Aβ1-42 (green), brain Aβ1-40 (blue), brain Aβ1-x (black), and plasma Aβ1-40 (red) were determined. Values are expressed as % relative to vehicle group mean. Whiskers represent standard error. ⊗Aβ1-x was not determined in the groups dosed at 3, 1, and 0.3 mg/kg. (b) Brain Aβ1-40 was plotted against brain Aβ1-42 for each rat dosed with BMS-869780 (black ▼) and for each rat dosed with vehicle (grey ●). Values are expressed as % relative to vehicle group mean. Whiskers represent standard error. […]

rat brain Aβ = assay: Rat brain Aβ peptides after oral dose (4-plex immunoassay and Aβ1-x); assay type: in vivo; details: 10 mg/kg, 5 hours
Procedure: as §1
Rats were given oral doses of BMS-869780, and levels of brain Aβ, βCTF, and αCTF were determined 24 hours later. For comparison, BMS-698861 was dosed in a separate experiment and samples were taken 5 hours later. […] (c) Rat brain βCTF was detected by western blotting of immunoprecipitates from samples of the same rat brains used for Aβ determinations. […] (e) and (f) quantification of western blots shown in (c) and (d), respectively, expressed relative to percent of average level of CTF in vehicle-treated rats. […]

[2] = tested on: rat brain APP-CTFβ and APP-CTFα; assay: Immunoprecipitation and western blot of APP-CTFβ and APP-CTFα from rat brain; assay type: in vivo; details: 10 mg/kg, 5 hours
Procedure: Rats were given oral doses of BMS-869780, and levels of brain Aβ, βCTF, and αCTF were determined 24 hours later. For comparison, BMS-698861 was dosed in a separate experiment and samples were taken 5 hours later. (a) Brain levels of Aβ1-42 (red), Aβ1-40 (green), Aβ1-38 (blue), and Aβ1-37 (purple) are shown as bars stacked upon one another. The total height of each bar therefore represents the sum of the four peptides. (b) Aβ1-42 (red—left Y axis) and Aβ1-x (grey—right Y axis). The same results for Aβ1-42 are plotted in both (a) and (b). (c) Rat brain βCTF was detected by western blotting of immunoprecipitates from samples of the same rat brains used for Aβ determinations. V, vehicle groups; results from rats dosed with 1.9, 22, 100, and 235 mg/kg of BMS-869780 and 10 mg/kg BMS-698861 (GSI) are indicated. (d) Western blots of immunoprecipitated αCTF from the same rat brain samples. (e) and (f) quantification of western blots shown in (c) and (d), respectively, expressed relative to percent of average level of CTF in vehicle-treated rats. Actual doses of BMS-869780 were determined by analysis of concentrations in left-over dosing solutions. […]

Notch/Aβ1-40 = tested on: Notch/Aβ1-40; design: method as in PMID 24900185; details: cited from earlier work
brain Aβ1-42 = tested on: brain Aβ1-42; design: method as in PMID 12897211, PMID 17650315; details: rodents; cited from earlier work
[3] = tested on: Aβ1-42 in cerebrospinal fluid; design: method as in PMID 18090435; details: clinical trials, even at high doses; cited from earlier work

## NC(=O)[C@@H](CC1CC1)N(Cc1ccc(-c2ncon2)cc1F)S(=O)(=O)c1ccc(Cl)cc1 [BMS-698861, reference compound]
[1]
  Aβ lowering in all Aβ assays including Aβ1-x: robust lowering in all Aβ assays
Rat brain Aβ
  rat brain Aβ1-40, Aβ1-42, Aβ1-38, Aβ1-37 and Aβ1-x: decreased levels of all the peptides
[2]
  rat brain APP-CTFβ and APP-CTFα levels: increased several-fold

## NC(=O)[C@@H](CCC(F)(F)F)N(Cc1ccc(-c2ncon2)cc1F)S(=O)(=O)c1ccc(Cl)cc1 [avagacestat]
Notch/Aβ1-40
  Notch/Aβ1-40 IC50 ratio: 193

## CC(C(=O)O)c1ccc(-c2ccccc2)c(F)c1 (stereo not drawn) [flurbiprofen]
Brain Aβ1-42
  effect on brain Aβ1-42: lower brain Aβ1-42 in rodents
[3]
  effect on Aβ1-42 in cerebrospinal fluid: no effect on Aβ1-42 in cerebrospinal fluid

From article PMC4109680, “Identification and Preclinical Pharmacology of the γ-Secretase Modulator BMS-869780” (International Journal of Alzheimer's Disease, 2014)
